In PMC6451126 (2019):

Tests used:
[1] = tested on: Oxy28 (DNA, G4) GGGGTTTTGGGGTTTTGGGGTTTTGGGG; experiment: RLS intensity ratio; conditions: 50 mM KCl; 20 mM Tris-HCl pH 7.0, 1 mM Na2EDTA, 5 µM porphyrin, 10 µM DNA
[2] = tested on: Hum24 (DNA, G4) TTAGGGTTAGGGTTAGGGTTAGGG; experiment: RLS intensity ratio; conditions: 50 mM KCl; 20 mM Tris-HCl pH 7.0, 1 mM Na2EDTA, 5 µM porphyrin, 10 µM DNA
[3] = tested on: C-MYC (DNA, G4) TGAGGGTGGGGAGGGTGGGGAA; experiment: RLS intensity ratio; conditions: 50 mM KCl; 20 mM Tris-HCl pH 7.0, 1 mM Na2EDTA, 5 µM porphyrin, 10 µM DNA
[4] = tested on: CatG4 (DNA, G4) TGGGTAGGGCGGGTTGGG; experiment: RLS intensity ratio; conditions: 50 mM KCl; 20 mM Tris-HCl pH 7.0, 1 mM Na2EDTA, 5 µM porphyrin, 10 µM DNA
[5] = tested on: AS1411 (DNA, G4) GGTGGTGGTGGTTGTGGTGGTGGTGG; experiment: RLS intensity ratio; conditions: 50 mM KCl; 20 mM Tris-HCl pH 7.0, 1 mM Na2EDTA, 5 µM porphyrin, 10 µM DNA
[6] = tested on: KRAS (DNA, G4) AGGGCGGTGTGGGAAGAGGGAAGAGGGGGAGG; experiment: RLS ratio I702/I652, absorption, fluorescence; Job plot; conditions: 50 mM KCl; 20 mM Tris-HCl pH 7.0, 1 mM Na2EDTA, 5 µM porphyrin
[7] = tested on: KRAS (DNA, G4) AGGGCGGTGTGGGAAGAGGGAAGAGGGGGAGG; experiment: RLS intensity ratio; Job plot; conditions: 50 mM KCl; 20 mM Tris-HCl pH 7.4, 1 mM Na2EDTA, 5 µM porphyrin

Measured: binding

C[N+]1(CCOc2ccc(-c3c4nc(c(-c5ccc(OCC[N+]6(C)CCCCC6)cc5)c5ccc([nH]5)c(-c5ccc(OCC[N+]6(C)CCCCC6)cc5)c5nc(c(-c6ccc(OCC[N+]7(C)CCCCC7)cc6)c6ccc3[nH]6)C=C5)C=C4)cc2)CCCCC1
yes: [1] | [2] | [3] | [4] | [5] | [6]

C[N+]1(CCO)CC[N+](C)(CCOc2ccc(-c3c4nc(c(-c5ccc(OCC[N+]6(C)CC[N+](C)(CCO)CC6)cc5)c5ccc([nH]5)c(-c5ccc(OCC[N+]6(C)CC[N+](C)(CCO)CC6)cc5)c5nc(c(-c6ccc(OCC[N+]7(C)CC[N+](C)(CCO)CC7)cc6)c6ccc3[nH]6)C=C5)C=C4)cc2)CC1 (stereo not shown)
yes: [7]
